ChEMBL document CHEMBL1150005, “Reduced amide bond neurotensin 813 mimetics with potent in vivo activity” (Bioorg Med Chem Lett, 1995)
Numbered stars: 1 amine (or outer) side, 2 acyl side, 3 side chain; on linkers, the order of the positions; unused ones are H or OH. Square brackets hold non-standard residues; d marks the D form. Peptide text beside a SMILES is read from it. * marks the point of attachment. X3 = NCCCC[C@@H](C(=O)[*:2])N(C[C@@H](N)CCCN=C(N)N)[*:1]; X1 = NCCCC[C@H](N)CN([C@@H](CCCCN)C(=O)[*:2])[*:1]; X2 = NCCCCCCN([C@@H](CCCCN)C(=O)[*:2])[*:1]; X6 = N=C(N)NCCCC(CCCNC(=N)N)C(=O)*; X7 = NC(N)=NCCCC(CCCN=C(N)N)C(=O)*; NMeR = CN[C@@H](CCCNC(=N)N)C(=O)O; Tle = CC(C)(C)[C@H](N)C(=O)O; X4 = NCCCCC(CCCCN)C(=O)*; X5 = NCCCC(CCCN)C(=O)*

Columns and labels:
HT-29 = experiment: Compound was tested in vitro to mobilize calcium from HT-29 cells; format: functional, cell-based; conditions: Homo sapiens
Mus musculus [1] = experiment: Compound was tested in vivo for its ability to inhibit spontaneous locomotor activity of mice; intraperitoneal administration; format: functional; conditions: ip
Mus musculus [2] = experiment: Analgesic activity was evaluated in the acetic acid induced stretching paradigm after subcutaneous administration; format: functional; conditions: sc
Mus musculus [3] = experiment: Compound was tested in vivo for its ability to inhibit spontaneous locomotor activity of mice after intraperitoneal administration; format: functional; conditions: ip
[4] = biological target: T1, Neurotensin receptor type 1 (Mus musculus, UniProt O88319); experiment: Binding affinity for Neurotensin Receptor
[5] = biological target: T1, Neurotensin receptor type 1; experiment: Compound was tested in vitro for its binding affinity against Neurotensin Receptor […]
Mus musculus [6] = experiment: Compound was tested in vivo for its ability to inhibit spontaneous locomotor activity of mice after intracerebroventricular administration; format: functional; conditions: central

T1 sequence (O88319 whole entry): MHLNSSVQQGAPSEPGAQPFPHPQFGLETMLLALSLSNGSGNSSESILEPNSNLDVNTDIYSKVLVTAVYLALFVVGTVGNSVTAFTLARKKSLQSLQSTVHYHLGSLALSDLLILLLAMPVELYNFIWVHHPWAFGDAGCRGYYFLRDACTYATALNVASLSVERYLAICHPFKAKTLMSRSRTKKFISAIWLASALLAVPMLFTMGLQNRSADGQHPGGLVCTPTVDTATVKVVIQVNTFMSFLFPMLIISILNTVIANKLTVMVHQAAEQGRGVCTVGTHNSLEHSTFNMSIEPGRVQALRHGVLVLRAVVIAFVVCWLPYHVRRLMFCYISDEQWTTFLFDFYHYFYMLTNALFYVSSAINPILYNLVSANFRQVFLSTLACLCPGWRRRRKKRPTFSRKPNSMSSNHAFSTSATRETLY

| Compound | ED50 (Mus musculus [3]) [mg/kg] | Ki [4] [nM] | other results |
| --- | --- | --- | --- |
| CC[C@H](C)[C@H](NC(=O)[C@H](Cc1ccc(O)cc1)NC(=O)[C@@H]1CCCN1C(=O)[C@H](CCCNC(=N)N)NC(=O)[C@@H](N)CCCNC(=N)N)C(=O)N[C@@H](CC(C)C)C(=O)O [listing 1 of 2 here] | – | – | EC50 (HT-29): 4.21 nM |
| CC[C@H](C)[C@H](NC(=O)[C@H](Cc1ccc(O)cc1)NC(=O)[C@@H]1CCCN1C(=O)[C@H](CCCNC(=N)N)NC(=O)[C@@H](N)CCCNC(=N)N)C(=O)N[C@@H](CC(C)C)C(=O)O [listing 2 of 2 here] | – | – | ED50 (Mus musculus [1]): > 10 mg/kg; ED50 (Mus musculus [2]): > 10 mg/kg |
| CC(C)C[C@H](NC(=O)[C@@H](NC(=O)[C@H](Cc1c[nH]c2ccccc12)NC(=O)[C@@H]1CCCN1C(=O)[C@@H](N)CCCCN)C(C)(C)C)C(=O)O (H-KPW[Tle]L-OH) | > 10 | 60 | – |
| CN[C@@H](CCCNC(=N)N)C(=O)N[C@@H](CCCCN)C(=O)N1CCC[C@H]1C(=O)N[C@@H](Cc1c[nH]c2ccccc12)C(=O)N[C@H](C(=O)N[C@@H](CC(C)C)C(=O)O)C(C)(C)C (H-[NMeR]KPW[Tle]L-OH) | – | – | Ki [5]: 0.064 nM |
| CC[C@H](C)[C@H](NC(=O)[C@H](Cc1c[nH]c2ccccc12)NC(=O)[C@@H]1CCCN1C(=O)[C@H](CCCCN)NC[C@@H](N)CCCCN)C(=O)N[C@@H](CC(C)C)C(=O)O (H-[X1]PWIL-OH) [listing 1 of 2 here] | – | 0.06 | EC50 (HT-29): 110 nM |
| CC[C@H](C)[C@H](NC(=O)[C@H](Cc1c[nH]c2ccccc12)NC(=O)[C@@H]1CCCN1C(=O)[C@H](CCCCN)NC[C@@H](N)CCCCN)C(=O)N[C@@H](CC(C)C)C(=O)O (H-[X1]PWIL-OH) [listing 2 of 2 here] | 6.3 | – | – |
| CCOC(=O)[C@H](CC(C)C)NC(=O)[C@@H](NC(=O)[C@H](Cc1c[nH]c2ccccc12)NC(=O)[C@@H]1CCCN1C(=O)[C@H](CCCCN)NC[C@@H](N)CCCCN)C(C)(C)C (H-[X1]PW[Tle]L-OEt) [listing 1 of 2 here] | – | 31.2 | EC50 (HT-29): 4500 nM |
| CCOC(=O)[C@H](CC(C)C)NC(=O)[C@@H](NC(=O)[C@H](Cc1c[nH]c2ccccc12)NC(=O)[C@@H]1CCCN1C(=O)[C@H](CCCCN)NC[C@@H](N)CCCCN)C(C)(C)C (H-[X1]PW[Tle]L-OEt) [listing 2 of 2 here] | 0.21 | – | – |
| CC(C)C[C@H](NC(=O)[C@@H](NC(=O)[C@H](Cc1c[nH]c2ccccc12)NC(=O)[C@@H]1CCCN1C(=O)[C@H](CCCCN)NC[C@@H](N)CCCCN)C(C)(C)C)C(=O)O (H-[X1]PW[Tle]L-OH) [listing 1 of 2 here] | – | 1.13 | EC50 (HT-29): 362 nM |
| CC(C)C[C@H](NC(=O)[C@@H](NC(=O)[C@H](Cc1c[nH]c2ccccc12)NC(=O)[C@@H]1CCCN1C(=O)[C@H](CCCCN)NC[C@@H](N)CCCCN)C(C)(C)C)C(=O)O (H-[X1]PW[Tle]L-OH) [listing 2 of 2 here] | 0.14 | – | – |
| CC[C@H](C)[C@H](NC(=O)[C@H](Cc1ccc(O)cc1)NC(=O)[C@@H]1CCCN1C(=O)[C@H](CCCCN)NC[C@@H](N)CCCCN)C(=O)N[C@@H](CC(C)C)C(=O)O (H-[X1]PYIL-OH) [listing 1 of 2 here] | – | 0.15 | – |
| CC[C@H](C)[C@H](NC(=O)[C@H](Cc1ccc(O)cc1)NC(=O)[C@@H]1CCCN1C(=O)[C@H](CCCCN)NC[C@@H](N)CCCCN)C(=O)N[C@@H](CC(C)C)C(=O)O (H-[X1]PYIL-OH) [listing 2 of 2 here] | > 10 | – | – |
| CC(C)C[C@H](NC(=O)[C@@H](NC(=O)[C@H](Cc1ccc(O)cc1)NC(=O)[C@@H]1CCCN1C(=O)[C@H](CCCCN)NC[C@@H](N)CCCCN)C(C)(C)C)C(=O)O (H-[X1]PY[Tle]L-OH) [listing 1 of 2 here] | – | 0.4 | EC50 (HT-29): 512 nM |
| CC(C)C[C@H](NC(=O)[C@@H](NC(=O)[C@H](Cc1ccc(O)cc1)NC(=O)[C@@H]1CCCN1C(=O)[C@H](CCCCN)NC[C@@H](N)CCCCN)C(C)(C)C)C(=O)O (H-[X1]PY[Tle]L-OH) [listing 2 of 2 here] | 0.9 | – | – |
| CCOC(=O)[C@H](CC(C)C)NC(=O)[C@@H](NC(=O)[C@H](Cc1c[nH]c2ccccc12)NC(=O)[C@@H]1CCCN1C(=O)[C@H](CCCCN)NCCCCCCN)C(C)(C)C (H-[X2]PW[Tle]L-OEt) [listing 1 of 2 here] | – | 27 | – |
| CCOC(=O)[C@H](CC(C)C)NC(=O)[C@@H](NC(=O)[C@H](Cc1c[nH]c2ccccc12)NC(=O)[C@@H]1CCCN1C(=O)[C@H](CCCCN)NCCCCCCN)C(C)(C)C (H-[X2]PW[Tle]L-OEt) [listing 2 of 2 here] | – | – | ED50 (Mus musculus [1]): 0.3 mg/kg; ED50 (Mus musculus [2]): 0.05 mg/kg |
| CCOC(=O)[C@H](CC(C)C)NC(=O)[C@@H](NC(=O)[C@H](Cc1c[nH]c2ccccc12)NC(=O)[C@@H]1CCCN1C(=O)[C@H](CCCCN)NC[C@@H](N)CCCN=C(N)N)C(C)(C)C (H-[X3]PW[Tle]L-OEt) [listing 1 of 2 here] | – | 437 | – |
| CCOC(=O)[C@H](CC(C)C)NC(=O)[C@@H](NC(=O)[C@H](Cc1c[nH]c2ccccc12)NC(=O)[C@@H]1CCCN1C(=O)[C@H](CCCCN)NC[C@@H](N)CCCN=C(N)N)C(C)(C)C (H-[X3]PW[Tle]L-OEt) [listing 2 of 2 here] | – | – | ED50 (Mus musculus [6]): 1.6 mg/kg; ED50 (Mus musculus [1]): 0.15 mg/kg |
| CC(C)C[C@H](NC(=O)[C@@H](NC(=O)[C@H](Cc1c[nH]c2ccccc12)NC(=O)[C@@H]1CCCN1C(=O)[C@H](CCCCN)NC[C@@H](N)CCCN=C(N)N)C(C)(C)C)C(=O)O (H-[X3]PW[Tle]L-OH) [listing 1 of 2 here] | – | 17.1 | – |
| CC(C)C[C@H](NC(=O)[C@@H](NC(=O)[C@H](Cc1c[nH]c2ccccc12)NC(=O)[C@@H]1CCCN1C(=O)[C@H](CCCCN)NC[C@@H](N)CCCN=C(N)N)C(C)(C)C)C(=O)O (H-[X3]PW[Tle]L-OH) [listing 2 of 2 here] | – | – | ED50 (Mus musculus [1]): 0.48 mg/kg; ED50 (Mus musculus [2]): 0.3 mg/kg |
| CC(C)C[C@H](NC(=O)[C@@H](NC(=O)[C@H](Cc1c[nH]c2ccccc12)NC(=O)[C@@H]1CCCN1C(=O)C(CCCCN)CCCCN)C(C)(C)C)C(=O)O (X4-PW[Tle]L-OH) [listing 1 of 2 here] | – | 3.8 | – |
| CC(C)C[C@H](NC(=O)[C@@H](NC(=O)[C@H](Cc1c[nH]c2ccccc12)NC(=O)[C@@H]1CCCN1C(=O)C(CCCCN)CCCCN)C(C)(C)C)C(=O)O (X4-PW[Tle]L-OH) [listing 2 of 2 here] | 0.6 | – | – |
| CC(C)C[C@H](NC(=O)[C@@H](NC(=O)[C@H](Cc1c[nH]c2ccccc12)NC(=O)[C@@H]1CCCN1C(=O)C(CCCN)CCCN)C(C)(C)C)C(=O)O (X5-PW[Tle]L-OH) [listing 1 of 2 here] | – | 17 | – |
| CC(C)C[C@H](NC(=O)[C@@H](NC(=O)[C@H](Cc1c[nH]c2ccccc12)NC(=O)[C@@H]1CCCN1C(=O)C(CCCN)CCCN)C(C)(C)C)C(=O)O (X5-PW[Tle]L-OH) [listing 2 of 2 here] | 0.5 | – | – |
| CC(C)C[C@H](NC(=O)[C@@H](NC(=O)[C@H](Cc1c[nH]c2ccccc12)NC(=O)[C@@H]1CCCN1C(=O)C(CCCNC(=N)N)CCCNC(=N)N)C(C)(C)C)C(=O)O (stereo partly drawn) (X6-PW[Tle]L-OH) | – | 0.1 | – |
| CC(C)C[C@H](NC(=O)[C@@H](NC(=O)[C@H](Cc1c[nH]c2ccccc12)NC(=O)[C@@H]1CCCN1C(=O)C(CCCN=C(N)N)CCCN=C(N)N)C(C)(C)C)C(=O)O (X7-PW[Tle]L-OH) | 1.5 | – | – |
